The record followed here is patent US8754233B2, “Pyrazolylbenzothiazole derivatives and their use as therapeutic agents” (Dermira (Canada), Inc., priority 2002, dated 2014).

Molecules are shown by their SMILES.

One assay deals with K5P5 podocyte cell line. The experiment in a line: Survival assay in podocytes (PAN treatment, MTS). The class given is cell-based, murine. Particulars: PAN treated K5P5 podocytes. The text has this:
The treatment of glomerular visceral epithelial cells (podocytes) with high concentrations of puromycin aminonucleoside (PAN) causes significant cytotoxic effects. An assessment of cell viability subsequent to a cytotoxic exposure can be judged qualitatively by examining changes in cell phenotype after staining with crystal violet or determined quantitatively by employing a cytotoxic assay using the soluble tetrazolium salt [3-(4,5-dimethylthiazol-2-yl)-5-(3-carboxymethoxyphenyl)-2-(4-sulfophenyl)-2H-tetrazolium, inner salt] (MTS). Such a system can be used to evaluate the survival effects that ILK compounds have on podocytes following exposure to PAN or other cytotoxic agents.
The cell line employed for the podocyte model was the murine K5P5. […] The cells should be propagate to a maximum of 20 passages.
The flasks were incubated at 37° C., 5% CO2 for 3 days.
The flasks were incubated at 37° C., 5% CO2 for 4 days.
Cells were trypsinized (0.25%), collected from the tissue culture flasks centrifuged, resuspended and counted. […] The flasks were incubated at 37° C., 5% CO2 for 3 days.
10 μl of this 10× compound solution is added to the 80 μl of cells already present in the 96-well plates. For cell undergoing cytotoxic treatment, puromycin aminonuceloside (PAN, Sigma P7130) was added at a 10× concentration to 90 μl of cells. The positive control is PAN treatment without compound. The negative control is 100% DMSO diluted to the same factor as the compounds without PAN.
The plates are incubated at 37° C., 5% CO2 for 48 to 72 hours depending on the PAN concentration (i.e. lower concentrations of PAN required a longer incubation period). The medium is aspirated after plates are spun at 2400 rpm for 10 min at ambient temperature. 100 μl of 1×DPBS (without CaCl2, without MgCl2) is added to each well.
The MTS (Promega) is prepared under low lighting conditions by dissolving 4.0 g of MTS in 1.8 I of 1×DPBS. The solution is allowed to sit for 10 minutes and pH adjusted to 6.2. […] Absorbance is measured at 490 nm wavelength with a microplate reader.

For another assay, the system named is TNFa on macrophages. The experiment in a line: Inhibition of TNFα release from stimulated macrophages. The class given is cell-based, mouse. Particulars: Mus musculus, Macrophage; LPS and IFN-γ stimulated primary macrophages, ELISA. As to the method:
Peritoneal exudate macrophages were isolated by peritoneal lavage with ice-cold sterile physiological saline 24 hours after intraperitoneal injection of BALB/c mice with 0.5 mL of sterile Zymosan A (1 mg/0.5 mL 0.9% saline). […] Murine primary macrophage will get activated following incubation with LPS in the presence of sub-optimal doses of IFN-γ. […] TNF-αlevels in the supernatants from stimulated macrophages were determined with PharMingen's OptEIA TNF-α kit (PharMingen). The experiment was performed at room temperature, about 21° C., unless otherwise stated. The microwells (F8 MaxiSorp™ Loose/Nunc-Immuno Module; Gibco/BRL) were coated with 100 μl/well of capture antibody (at the recommended concentration) and incubated overnight at 4° C. […] Next, the solution was removed and the plates were washed 5× with wash buffer. The TNF-αanalysis was initiated by adding duplicate samples (100 μl/well) or standards (100 μl/well) in diluent buffer which were incubated for 2 h. The solution was removed and the plates washed 5× with wash buffer. Enzyme reagent (100 μl) containing biotinylated mouse TNF-αmonoclonal antibody and avidin-horseradish peroxidase conjugate (at concentrations recommended by the manufacturer) was added to each well. The plate was incubated for 1 hour, the solution removed, and the plates washed 7× with wash buffer. […] Colour development was terminated by adding 50 μl of 2N H2SO4. […] Peritoneal exudate macrophages were isolated by peritoneal lavage with ice-cold sterile physiological saline 24 hours after intraperitoneal injection of BALB/c mice with 0.3 ml of sterile zymosan A (1 mg/0.5 mL 0.9% saline). […] All treatments were replicated six times. Cells were incubated for an additional 24 hours, and cell free culture supernatants from each well were collected for NO and cytokine determination. The remaining cells were stained with crystal violet to determine effect of the compound on cell survival.
A general note: An ELISA detects its analyte on a solid surface through an enzyme-linked reagent.

The test system of the next assay is ConA 1° splenocytes. The experiment in a line: Survival of ConA 1° splenocytes (cytotoxicity by MTS staining). The class given is cell-based, mouse. Particulars: Mus musculus, Splenocyte, ConA-stimulated splenocytes. As to the method:
The working concentration of ConA was […]. A 20× working concentration of Concanavalin A was […] was prepared using RPMI-5. The test compounds, dimethylsulfoxide (DMSO) negative vehicle control and staurosporine positive control were diluted twenty times using RPMI-5. Ten μL each of DMSO and staurosporine were combined with 180 μl of medium containing splenocytes in the wells, and 10 μl of 50 μg/ml ConA was immediately added. Medium without ConA was added to the control wells. […] The plates were incubated at 37° C. in 5% CO2 in humidified conditions overnight (18-24 hours) for INFγ.
(MTS). The MTS solution was made fresh and under low light. The electron coupling reagent phenazine methosulfate (PMS) was added at the time of the assay. Twenty μL of MTS solution per 100 μl of tissue culture medium was added to each well. The plates were incubated 37° C. for 4 hours for unstimulated and 18-24 ConA stimulated splenocytes. The absorbance was read at 490 nm wavelength. A kit available to do this assay is “CellTiter 96® AQ Kit AQueous Kit (G5421)” by Promega.

The next assay relates to PC3 Cells. The experiment in a line: Tumor cell migration assay. The class given is cell-based. Particulars: Homo sapiens, PC-3, 25 μM compound. As to the method: The invasion test system (BD Bioscience's BioCoat™ FluoroBlok™ Invasion System including BD BioCoat™ Matrigel™ Invasion Chambers with the fluorescence blocking membrane FluoroBlok™ 24-Multiwell Insert System™) is removed from the package from −20° C. storage and allowed to warm to ambient temperature. PBS is added to the interior of the inserts and they are allowed to rehydrate for 2 hours at 37° C. The medium is then removed and 450 μL cell suspensions of tumor cells (grown to 50-70% confluence, trypsinized, and resuspended in medium without serum at 1×10^6/mL) is added to the top chamber. Test compounds are added to the top chamber at 10× the desired final concentration in 50 μL volumes. DMSO acts as the control. […]
Data is expressed as fluorescence units (FU) from the sum of middle 25 areas per 24-well or as percentage of invasion inhibition by following formula: % of invasion inhibition=100−FU of compound treated cell invasion/FU of DMSO treated cell invasion*100.
Tumor cell migration assay was conducted in the similar way as described in Example 16 except that the plates used were constructed with only a porous membrane dividing a top and bottom chamber without the additional thin Matrigel™ layer on top of the membrane (BD Fluoroblock™ plates). The percent inhibition of migration was determined in the same way as illustrated in Example 16.

Another assay addresses ILK (Homo sapiens (Human), UniProt Q13418). Briefly: Inhibition of ILK in vitro enzyme assay. Particulars: read-out: IC50 avg. value; recombinant ILK, [γ-32P]-ATP, 15 minutes at ambient temperature.
For the next assay, the system named is HUVEC. The conditions noted are these: HUVEC on Matrigel, VEGF 1 ng/mL, 5 hours. As to the method: Angiogenesis, the formation of new blood vessels from pre-existing endothelium, is a critical process involved in numerous physiological and pathological conditions. Disruption of this tightly regulated process has been implicated in both chronic inflammation and solid tumour growth. The Matrigel™ morphogenesis assay is an in vitro model used to mimic the process by which endothelial cells form capillaries in vivo. Human umbilical vein endothelial cells (HUVECs) were plated over matrigel, a complex mixture of solubilized basement membrane components, and cultured in serum poor medium with specific growth factors and in the presence of the test compound. […] After 5 hours of incubation in a 5% CO2-humidified atmosphere at 37° C., the three-dimensional organization of the cells (the capillary-like structures) was examined using an inverted photomicroscope. The cells were fixed with crystal violet (0.05% in 20% ethanol) and photographed using a digital camera. Qualitative analysis was accomplished by comparing the pattern, size and integrity of the vessels formed in the test wells with those of the VEGF control wells. Quantitative analysis was performed on the images collected using the Image-Pro Plus software program.

In a further assay the test system is macrophages. The experiment in a line: Survival of macrophages. The class given is cell-based, mouse. The conditions noted are these: Mus musculus, Macrophage; stimulated primary macrophages. The protocol: Peritoneal exudate macrophages were isolated by peritoneal lavage with ice-cold sterile physiological saline 24 hours after intraperitoneal injection of BALB/c mice with 0.3 ml of sterile zymosan A (1 mg/0.5 mL 0.9% saline). […] 1.5×10^5 cells/well were seeded in 96-well plates and followed by 3 hour incubation at 37° C. with 5% CO2 (macrophages were allowed to attach) cells were stimulated with LPS ([…]/mL) and IFN-γ (100 U/mL) in the absence or presence of the test compounds. All treatments were replicated six times. Cells were incubated for an additional 24 hours, and cell free culture supernatants from each well were collected for NO and cytokine determination. The remaining cells were stained with crystal violet to determine effect of the compound on cell survival.

A further assay deals with IL-12 on macrophages. The experiment in a line: Inhibition of IL-12 release from stimulated macrophages. The class given is cell-based, mouse. The conditions noted are these: Mus musculus, Macrophage; LPS and IFN-γ stimulated primary macrophages, ELISA. As to the method:
Peritoneal exudate macrophages were isolated by peritoneal lavage with ice-cold sterile physiological saline 24 hours after intraperitoneal injection of BALB/c mice with 0.5 mL of sterile Zymosan A (1 mg/0.5 mL 0.9% saline). […] Murine primary macrophage are activated following incubation with LPS in the presence of sub-optimal doses of IFN-γ. Upon activation, macrophages participate actively in the onset of inflammation by releasing bioactive molecules that amplify the initial inflammatory response. […] Briefly, IL-12 levels in the supernatants from stimulated macrophages were determined with PharMingen's OptEIA™ ELISA set developed using an anti-mouse IL-12 antibody pair and mouse rIL-12 standard (PharMingen). Maxisorp™ F16 multiwell strips (Nunc, Roskilde, Denmark) were coated with anti-mouse IL-12 capture Ab (at recommended concentration) in 0.1 M NaHCO3, pH 9.5, 100 μL/well, overnight at 4° C. […] Plates were washed 3× with PBST and duplicate samples (100 μL/well) or standards (100 μL/well) in diluent buffer were incubated for 2 h. Plates were washed five times with PBST and incubated with biotinylated anti-mouse IL-12 and avidin-horseradish peroxidase (HRP) conjugate (at concentrations recommended by the manufacturer) for 1 h. […] Peritoneal exudate macrophages were isolated by peritoneal lavage with ice-cold sterile physiological saline 24 hours after intraperitoneal injection of BALB/c mice with 0.3 ml of sterile zymosan A (1 mg/0.5 mL 0.9% saline). […] All treatments were replicated six times. Cells were incubated for an additional 24 hours, and cell free culture supernatants from each well were collected for NO and cytokine determination. The remaining cells were stained with crystal violet to determine effect of the compound on cell survival.

Assay [1] concerns Nitric Oxide On Stimulated Macrophages. Briefly: Inhibition of nitric oxide on stimulated macrophages. The class given is cell-based. Particulars: Mus musculus, Macrophage, 25 μM compound. As to the method:
Peritoneal exudate macrophages were isolated by peritoneal lavage with ice-cold sterile physiological saline 24 hours after intraperitoneal injection of BALB/c mice with 0.3 ml of sterile zymosan A (1 mg/0.5 mL 0.9% saline). […] All treatments were replicated six times. Cells were incubated for an additional 24 hours, and cell free culture supernatants from each well were collected for NO and cytokine determination. The remaining cells were stained with crystal violet to determine effect of the compound on cell survival. […] The absorbance at 550 nm was determined. All measurements were performed six times.

Sequence of ILK (Q13418 whole entry): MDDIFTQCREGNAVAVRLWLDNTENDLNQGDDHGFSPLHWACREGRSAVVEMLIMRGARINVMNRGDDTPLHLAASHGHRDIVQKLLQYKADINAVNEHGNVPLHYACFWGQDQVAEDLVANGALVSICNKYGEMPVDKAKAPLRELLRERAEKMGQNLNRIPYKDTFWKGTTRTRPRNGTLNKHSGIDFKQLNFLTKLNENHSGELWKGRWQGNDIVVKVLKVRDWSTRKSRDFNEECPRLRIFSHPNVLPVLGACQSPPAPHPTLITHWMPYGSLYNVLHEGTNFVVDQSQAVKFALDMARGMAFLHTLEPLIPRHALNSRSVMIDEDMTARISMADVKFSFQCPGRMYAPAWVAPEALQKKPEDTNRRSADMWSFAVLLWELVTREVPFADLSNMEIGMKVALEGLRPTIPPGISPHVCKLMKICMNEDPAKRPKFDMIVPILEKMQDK
From the text for ILK: The target ILK is a full-length recombinant protein expressed in Hi5 insect cells by baculovirus infection. Recombinant ILK protein was expressed using cultured insect cells and a baculovirus expression system. […] This ILK transfer construct was then co-transfected with BaculoGold™ DNA (Pharmingen) into Sf9 insect cells (Invitrogen) and a high titre preparation of GST-ILK recombinant baculovirus was produced by amplification in Sf9 cells. Liter scale expression of GST-ILK recombinant protein was done in 1000 mL spinner flasks (Bellco) by infection of Hi5 insect cells (Invitrogen) grown in Ex-Cell™ 400 serum free media (JRH Biosciences) at a multiplicity of infection of approximately 5. […]
From each assay mixture, 10 μL of assay mixture was spotted onto Millipore Multiscreen-PH™ opaque plates and washed twice for 10 minutes in 1% phosphoric acid. The plates were dried at 40° C. for 30 minutes, then substrate-phosphate complexes were quantitated by scintillation counting. […]
Inhibition of ILK by the test compounds is measured by scintillation counting of the incorporation of radioactive phosphate onto a specific substrate which is immobilized onto a filter paper at the end of the assay. […]
The “baseline activity” is the amount of radioactivity incorporated in the absence of a target inhibitor.

One may read the IC50 as the concentration that inhibits the measured activity by half. `Cc1n[nH]c(N)c1-c1nc2cc(F)c(S(N)(=O)=O)cc2s1` [2-(5-Amino-3-methyl-1H-pyrazol-4-yl)-5-fluoro-benzothiazole-6-sulfonic acid amide]: in the assay on K5P5 podocyte cell line (@ 12.5 μM), the “% Survival” value is reported as 30%. In addition, 0.9 µM corresponded to half-maximal inhibition in the assay with TNFa on macrophages (IC50). The molecule `Cc1n[nH]c(N)c1-c1nc2cc(F)c(S(=O)(=O)NCCO)cc2s1` [2-(5-Amino-3-methyl-1H-pyrazol-4-yl)-5-fluorobenzothiazole-6-sulfonic acid (2-hydroxy-ethyl)-amide] displayed a half-inhibitory concentration (IC50) with ConA 1° splenocytes greater than 25 µM. For the same molecule, in the assay on K5P5 podocyte cell line (@ 25 μM), the “% Survival” value is listed as 30%.

The term inhibition denotes the change of the read-out against control, counted positive when it falls. A higher inhibition goes with a strong effect. Consider `Oc1ccc(-c2n[nH]cc2-c2nc3ccccc3s2)c(O)c1` [4-(4-Benzothiazol-2-yl-1H-pyrazol-3-yl)-benzene-1,3-diol], for which the inhibition at 25 µM in the assay with PC3 Cells stood at 44.8%. For the same molecule, the IC50 on ILK is 3.3 µM. For `Nc1n[nH]c(N)c1-c1nc2ccccc2s1` [4-Benzothiazol-2-yl-1H-pyrazole-3,5-diamine], in the assay on HUVEC, the “% Inhibition of angiogenesis” value came to 32%. With `Cc1[nH]nc(N)c1-c1nc2ccccc2s1` [4-Benzothiazol-2-yl-5-methyl-1H-pyrazol-3-ylamine], the “% Inhibition of angiogenesis” value with HUVEC turned out to be 64%.

For `CSc1[nH]nc(N)c1-c1nc2ccccc2s1` [4-Benzothiazol-2-yl-5-methylsulfanyl-1H-pyrazol-3-ylamine], the “% Inhibition of angiogenesis” value with HUVEC came to 84%.

For `Nc1[nH]nc(-c2ccncc2)c1-c1nc2ccccc2s1` [4-Benzothiazol-2-yl-5-pyridin-4-yl-2H-pyrazol-3-ylamine], the IC50 in the assay with ConA 1° splenocytes, with macrophages and in the assay on IL-12 on macrophages was greater than 25 µM throughout. Take `Nc1n[nH]c(N2CCCC2)c1-c1nc2ccccc2s1` [4-Benzothiazol-2-yl-5-pyrrolidin-1-yl-1H-pyrazol-3-ylamine]: the “% Inhibition of angiogenesis” value in the assay with HUVEC is given as 50%. For the molecule `Nc1n[nH]c(Nc2ccc3ncccc3c2)c1-c1nc2ccccc2s1` [4-Benzothiazol-2-yl-N^5-quinolin-6-yl-1H-pyrazole-3,5-diamine], the inhibition at 25 µM with PC3 Cells came out at 81%; in assay [1], 66.1%.
